Data on 1 compound can be found in patent US12569434B2, “Formulations of Nebivolol” (EXTROVIS AG, priority 2020, dated 2026).

Data set [1] is classed as physicochemical. The note with it: solution in propylene glycol, pH 3 to 7, 50° C. for 1M and 40° C./75% RH for 6M. As for the experimental part: To evaluate the stability of Nebivolol in suitable liquid vehicle or solubilizer at different pH conditions, pH stability study was performed using 0.1N HCL/0.1N NaOH for pH adjustment. Propylene glycol was used as solubilizer to dissolve Nebivolol to prepare the stock solution. The stock solution was added to water and adjusted the pH with 0.1N HCL/0.1N NaOH at different pH ranging from 3 to 7.

The format of data set [2] is physicochemical. The following applies: open air exposure, 50° C. for 2 Weeks and 40° C./7.5% RH for 1 month. The procedure: Drug-Excipient compatibility study was carried with excipients such as mannitol, maltitol, dextrates, povidone, methyl paraben, propyl paraben, citric acid, sodium citrate, sodium saccharin. The study was carried out in clear glass vials with open air exposure at stress conditions 50° C. for 2 Weeks and 40° C./[…] (relative humidity) for 1 month.

Each structure is given as a SMILES string.

Regarding `Cl.OC(CNCC(O)C1CCc2cc(F)ccc2O1)C1CCc2cc(F)ccc2O1` (racemic) [Nebivolol HCl, (1RS,1′RS)-1,1′-[(2RS,2′SR)-bis(6-fluoro-3,4-dihydro-2H-1-benzopyran-2-yl)]-2,2′-iminodiethanol hydrochloride], in data set [1], the “Stability of Nebivolol” value is “stable” and the “desfluoro Nebivolol impurity” value was “within the specification limits”. In data set [2], the “Stability of Nebivolol with excipients” value was “stable” and the desfluoro impurity entry is “within the specification limits”.
